3 molecules from patent US20100112600A1, “Methods and compositions for modulating synapse formation” (priority 2006, published 2010) can be followed below.

The subject of one experiment is endogenous MEF2A. Kind of experiment: Immunoblot of sumoylation and acetylation of endogenous MEF2A in depolarized granule neurons. In kind it is cell-based, rat.
The test system of another experiment is Nur77 promoter. The experiment can be described thus: Nur77-luciferase reporter gene assay in granule neurons. In kind it is cell-based, rat. Particulars: depolarized granule neurons. Here is the method: FIG. 5C is a bar graph. […] Treatment with CsA prevented depolarization-induced expression of the WT Nur77-luciferase reporter gene (p<0.0001, ANOVA; n=6), but had no effect on MREmut Nur77-luciferase reporter gene.
(§1) Luciferase assays were performed as described (Shalizi et al., 2006, Science 311: 1012-1017) with minor modifications. Granule neurons were transfected with the reporter constructs pNur77-luc or pNur77mut-luc and pRL-TK and the indicated hpRNA expression plasmids, and an expression construct for Bcl-XL. Granule neurons were switched from full medium to fresh BME supplemented with 5% calf serum (Hyclone) 72 hours after transfection and incubated overnight. 293T cells maintained as described were cotransfected with p5G4luc or pMEF2×3luc and pRL-TK reporter constructs and the indicated expression plasmids by DNA-calcium phosphate precipitation. Fresh growth media was added within 24 hours of transfection. Cells were lysed 48 hours after transfection. In both neurons and 293T cells, firefly-and renilla-luciferase activities were determined using a dual-luciferase assay kit (Promega) according to the manufacturers instructions.
Primary rat cerebellar granule neurons were transfected with the U6/piasx1, U6/piasx2, or control U6 RNAi plasmid together with a luciferase reporter gene controlled by the Nur77 promoter containing two MEF2 response elements (MREs). […]
A general note: Reporter assays use an easily measured gene product as a stand-in for the process of interest.

The subject of a further experiment is MEF2A Ser408. Kind of experiment: Immunoblot of phospho-Ser408 MEF2A in depolarized granule neurons. In kind it is cell-based, rat. The following applies: granule neurons depolarized with 25 mM KCl; Nim 20 μM, CsA 4 μM. For orientation: Immunoblotting shows a protein as a band on a membrane.
For experiment [1], the system named is MEF2-response elements (MRE-luciferase). The experiment can be described thus: MRE-luciferase reporter gene assay in cells. In kind it is cell-based. The following applies: co-transfected expression plasmid. Here is the method:
FIG. 4B is a bar graph and a series of immunoblots. Cells coexpressing MEF2A and increasing amounts of MEF2A-SUMO together with a 3-MRE luciferase reporter gene (pMEF2×3-luc) and pRL-TK. […] Lysates were also immunoblotted for MEF2 or ERK1/2.
as §1
Sumoylation of MEF2A represses MEF2-dependent transcription. The effect of PIASx expression on MEF2-dependent transcription in cells was examined. […]

Experiment [2] deals with granule neuron dendritic claws. Kind of experiment: Dendritic claw number of granule neurons in organotypic cerebellar slices. In kind it is cell-based, rat.
Method: The role that MEF2A plays in synaptic dendritic development in the cerebellar cortex was determined. […] To visualize granule neurons undergoing postsynaptic differentiation, organotypic cerebellar slices prepared from postnatal day 9 (P9) rat pups were transfected with an expression plasmid encoding green fluorescent protein (GFP). Transfected granule neurons in the internal granular layer (IGL) had the typical small cell body with associated parallel axonal fibers and few dendrites (FIGS. 1A and 1B). Many dendrites harbored structures with the appearance of dendritic claws that were identified based on classic descriptions as: (i) located at the end of a dendrite, (ii) having cup- or sickle-like appearance, and (iii) displaying undulating or serrated inner surfaces (FIGS. 1C and 1D). […] The effect of MEF2A knockdown on granule neuron dendritic morphogenesis was next determined. Cerebellar slices were transfected with the U6/mef2a plasmid that encodes MEF2A hairpin RNAs (MEF2AhpRNA) or the control U6 plasmid together with a GFP expression plasmid.
Slices were prepared and processed using known methods. […]
Microscopy was carried out using standard methods. […] Images of transfected granule neurons were analyzed using SPOT software for dendritic length, number of primary dendrites, and number of branches per primary dendrite as described.

Method for MEF2A Ser408: Lysates of granule neurons were depolarized with 25 mM KCl were immunoblotted for MEF2A, phospho-Ser408 MEF2A or ERK1/2. Nim=Nimodipine, 20 μM.
Cultures of primary granule neurons were isolated from P6 Long-Evans rats using known methods. Granule neurons were maintained in full medium (BME+10% calf serum (Hyclone), 1 mM each penicillin, streptomycin and L-glutamine and 25 mM KCl). Granule neurons were transfected in DMEM by DNA-calcium phosphate precipitation using standard methods.
Method for endogenous MEF2A: In FIG. 3F, granule neurons in non-depolarizing concentrations of KCl (5 mM) were lysed in the presence or absence of the isopeptidase inhibitor N-ethylmaleimide (NEM) and immunoblotted for MEF2A. […] In FIG. 3G, granule neurons are exposed to media containing non-depolarizing (5 mM) or depolarizing (25 mM) concentrations of KCl in the presence of nimodipine (Nim) or its control vehicle (DMSO) were lysed in the presence of NEM and immunoblotted as in FIG. 3F. […] Cultures of primary granule neurons were isolated from P6 Long-Evans rats using known methods. Granule neurons were maintained in full medium (BME+10% calf serum (Hyclone), 1 mM each penicillin, streptomycin and L-glutamine and 25 mM KCl).

In the case of cyclosporin A, the “acetylation of endogenous MEF2A” value in the experiment on endogenous MEF2A (depolarized neurons) was “decreased”. Besides, the “sumoylation of endogenous MEF2A” value in the experiment on endogenous MEF2A (depolarized neurons (25 mM KCl)) was “increased”. Further, the “MREmut Nur77-luciferase reporter gene” value in the experiment with Nur77 promoter (Nur77 promoter with mutant MRE) was “no effect”. The “depolarization-induced expression of the WT Nur77-luciferase reporter gene” value with Nur77 promoter (Nur77 promoter with wild type MRE) was “prevented”. The “depolarization-induced dephosphorylation of MEF2A at Ser408” value in the experiment with MEF2A Ser408 was “blocked”.

B1: PIASx: MEF2A SUMO E3 ligase; PIASxα and PIASxβ isoforms collectively (protein, UniProt O75928 1-621, looked up)
E3 SUMO-protein ligase PIAS2: MADFEELRNMVSSFRVSELQVLLGFAGRNKSGRKHDLLMRALHLLKSGCSPAVQIKIRELYRRRYPRTLEGLSDLSTIKSSVFSLDGGSSPVEPDLAVAGIHSLPSTSVTPHSPSSPVGSVLLQDTKPTFEMQQPSPPIPPVHPDVQLKNLPFYDVLDVLIKPTSLVQSSIQRFQEKFFIFALTPQQVREICISRDFLPGGRRDYTVQVQLRLCLAETSCPQEDNYPNSLCIKVNGKLFPLPGYAPPPKNGIEQKRPGRPLNITSLVRLSSAVPNQISISWASEIGKNYSMSVYLVRQLTSAMLLQRLKMKGIRNPDHSRALIKEKLTADPDSEIATTSLRVSLMCPLGKMRLTIPCRAVTCTHLQCFDAALYLQMNEKKPTWICPVCDKKAAYESLILDGLFMEILNDCSDVDEIKFQEDGSWCPMRPKKEAMKVSSQPCTKIESSSVLSKPCSVTVASEASKKKVDVIDLTIESSSDEEEDPPAKRKCIFMSETQSSPTKGVLMYQPSSVRVPSVTSVDPAAIPPSLTDYSVPFHHTPISSMSSDLPGLDFLSLIPVDPQYCPPMFLDSLTSPLTASSTSVTTTSSHESSTHVSSSSSRSETGVITSSGSNIPDIISLD
As to B1, in experiment [1], the “MRE-dependent transcription (luciferase reporter)” value is “potently inhibited”. Also, the “dendritic claw number on expression of the construct” value in experiment [2] (cerebellar slices transfected with expression plasmid vs control vector) was “robustly increased”.

B2: PIASx-Res: wild type PIASx protein expressed from cDNA resistant to piasx2 hpRNAs (protein, UniProt O75928 1-621, looked up)
E3 SUMO-protein ligase PIAS2: B1 E3 SUMO-protein ligase PIAS2
modifications: expressed from hpRNA-resistant cDNA
notes: wild type PIASx protein expressed from cDNA resistant to piasx2 hpRNAs
As for B2, the “number of claws restored, relative to control U6 transfected cerebellar slices” value in experiment [2] (expression in the background of piasx2 RNAi) is recorded as around 80%.
